In paper PMC3602277 (Bioorganic & medicinal chemistry, 2013):
Each block holds one compound with its values, some of them ahead of it.

Assays:
VEGFR-2 = VEGFR-2 (Homo sapiens, UniProt P35968); assay: Phosphotyrosine ELISA cytoblot, VEGFR-2 kinase inhibition in whole cells; type: cell-based; conditions: for fold less active than standard 20 in VEGFR-2 inhibition assay: ratio of IC50 vs semaxanib 20
A431 cancer cells [1] = assay: A431 cytotoxicity, CYQUANT cell proliferation assay; conditions: ratio of IC50 vs cisplatin 23
EGFR [2] = conditions: read-out: EGFR IC50; cited from earlier work
EGFR [3] = target: EGFR (Homo sapiens, UniProt P00533); assay: Phosphotyrosine ELISA cytoblot, EGFR kinase inhibition in whole cells; type: cell-based
PDGFR-β = PDGFR-β (Homo sapiens, UniProt P09619); assay: Phosphotyrosine ELISA cytoblot, PDGFR-β kinase inhibition in whole cells; type: cell-based
A431 cancer cells [4] = system: A431 cancer cells

VEGFR-2, sequence (P35968 20-1356): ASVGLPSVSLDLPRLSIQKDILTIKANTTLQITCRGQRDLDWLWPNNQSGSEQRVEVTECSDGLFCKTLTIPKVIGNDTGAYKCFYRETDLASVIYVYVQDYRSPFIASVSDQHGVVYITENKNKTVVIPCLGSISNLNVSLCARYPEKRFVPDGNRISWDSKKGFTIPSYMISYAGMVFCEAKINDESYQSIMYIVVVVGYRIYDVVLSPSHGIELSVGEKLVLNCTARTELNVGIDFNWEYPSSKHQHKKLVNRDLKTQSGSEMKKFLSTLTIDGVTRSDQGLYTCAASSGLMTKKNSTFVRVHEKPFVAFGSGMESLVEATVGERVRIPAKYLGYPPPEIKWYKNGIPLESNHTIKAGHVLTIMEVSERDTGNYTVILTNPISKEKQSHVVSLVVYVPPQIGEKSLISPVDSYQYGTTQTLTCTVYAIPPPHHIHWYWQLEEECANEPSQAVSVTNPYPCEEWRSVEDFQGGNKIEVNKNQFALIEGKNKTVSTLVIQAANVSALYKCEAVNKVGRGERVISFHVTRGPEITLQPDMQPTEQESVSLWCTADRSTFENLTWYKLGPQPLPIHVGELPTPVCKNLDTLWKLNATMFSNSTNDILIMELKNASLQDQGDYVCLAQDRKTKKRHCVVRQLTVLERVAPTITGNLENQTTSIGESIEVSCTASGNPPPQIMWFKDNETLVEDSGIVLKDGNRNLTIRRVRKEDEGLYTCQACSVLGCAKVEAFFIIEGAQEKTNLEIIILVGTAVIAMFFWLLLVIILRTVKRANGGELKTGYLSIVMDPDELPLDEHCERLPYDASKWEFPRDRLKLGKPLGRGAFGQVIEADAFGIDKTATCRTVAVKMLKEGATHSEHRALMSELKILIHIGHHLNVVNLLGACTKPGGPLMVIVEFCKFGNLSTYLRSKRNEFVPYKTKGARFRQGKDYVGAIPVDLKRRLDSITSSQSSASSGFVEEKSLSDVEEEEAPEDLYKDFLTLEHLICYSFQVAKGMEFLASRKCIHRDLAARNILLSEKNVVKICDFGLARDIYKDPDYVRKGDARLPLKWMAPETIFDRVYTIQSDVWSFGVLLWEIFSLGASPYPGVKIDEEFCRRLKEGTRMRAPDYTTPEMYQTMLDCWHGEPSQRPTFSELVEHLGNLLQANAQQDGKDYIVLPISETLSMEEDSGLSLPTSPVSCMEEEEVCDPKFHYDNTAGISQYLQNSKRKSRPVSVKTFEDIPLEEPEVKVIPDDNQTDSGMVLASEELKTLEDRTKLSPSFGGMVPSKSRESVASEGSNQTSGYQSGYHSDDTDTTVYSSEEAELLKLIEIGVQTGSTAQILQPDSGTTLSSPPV
EGFR (Homo sapiens, UniProt P00533), sequence (P00533 25-1210): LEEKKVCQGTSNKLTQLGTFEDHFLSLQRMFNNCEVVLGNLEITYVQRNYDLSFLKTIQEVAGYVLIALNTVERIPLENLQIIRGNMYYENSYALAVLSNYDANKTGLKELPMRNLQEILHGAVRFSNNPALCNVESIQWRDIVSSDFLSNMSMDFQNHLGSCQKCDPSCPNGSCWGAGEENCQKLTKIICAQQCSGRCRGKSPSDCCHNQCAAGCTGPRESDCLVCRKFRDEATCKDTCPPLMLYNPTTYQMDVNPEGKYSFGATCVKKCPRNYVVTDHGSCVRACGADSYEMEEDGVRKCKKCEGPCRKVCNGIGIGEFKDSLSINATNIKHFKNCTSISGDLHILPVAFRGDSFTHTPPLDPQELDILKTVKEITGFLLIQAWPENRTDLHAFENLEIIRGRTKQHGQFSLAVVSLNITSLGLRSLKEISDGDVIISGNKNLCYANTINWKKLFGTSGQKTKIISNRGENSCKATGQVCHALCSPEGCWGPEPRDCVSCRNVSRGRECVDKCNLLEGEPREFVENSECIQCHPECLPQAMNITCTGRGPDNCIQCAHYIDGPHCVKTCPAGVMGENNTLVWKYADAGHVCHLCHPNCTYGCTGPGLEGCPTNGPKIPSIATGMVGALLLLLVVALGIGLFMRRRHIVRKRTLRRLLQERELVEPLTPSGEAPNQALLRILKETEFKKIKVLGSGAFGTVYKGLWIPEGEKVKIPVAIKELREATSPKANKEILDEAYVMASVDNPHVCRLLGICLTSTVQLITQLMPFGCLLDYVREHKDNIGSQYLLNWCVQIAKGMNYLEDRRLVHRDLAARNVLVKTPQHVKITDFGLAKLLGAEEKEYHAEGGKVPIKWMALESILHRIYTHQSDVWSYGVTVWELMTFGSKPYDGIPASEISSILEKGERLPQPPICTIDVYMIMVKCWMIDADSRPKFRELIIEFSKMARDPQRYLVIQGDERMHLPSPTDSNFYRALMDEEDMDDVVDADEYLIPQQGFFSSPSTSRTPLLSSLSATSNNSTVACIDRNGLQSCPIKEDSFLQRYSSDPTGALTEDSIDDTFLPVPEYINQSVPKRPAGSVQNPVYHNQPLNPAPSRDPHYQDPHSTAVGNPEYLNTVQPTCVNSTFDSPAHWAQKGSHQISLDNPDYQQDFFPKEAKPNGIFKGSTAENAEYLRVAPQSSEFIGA
PDGFR-β, sequence (P09619 33-1106): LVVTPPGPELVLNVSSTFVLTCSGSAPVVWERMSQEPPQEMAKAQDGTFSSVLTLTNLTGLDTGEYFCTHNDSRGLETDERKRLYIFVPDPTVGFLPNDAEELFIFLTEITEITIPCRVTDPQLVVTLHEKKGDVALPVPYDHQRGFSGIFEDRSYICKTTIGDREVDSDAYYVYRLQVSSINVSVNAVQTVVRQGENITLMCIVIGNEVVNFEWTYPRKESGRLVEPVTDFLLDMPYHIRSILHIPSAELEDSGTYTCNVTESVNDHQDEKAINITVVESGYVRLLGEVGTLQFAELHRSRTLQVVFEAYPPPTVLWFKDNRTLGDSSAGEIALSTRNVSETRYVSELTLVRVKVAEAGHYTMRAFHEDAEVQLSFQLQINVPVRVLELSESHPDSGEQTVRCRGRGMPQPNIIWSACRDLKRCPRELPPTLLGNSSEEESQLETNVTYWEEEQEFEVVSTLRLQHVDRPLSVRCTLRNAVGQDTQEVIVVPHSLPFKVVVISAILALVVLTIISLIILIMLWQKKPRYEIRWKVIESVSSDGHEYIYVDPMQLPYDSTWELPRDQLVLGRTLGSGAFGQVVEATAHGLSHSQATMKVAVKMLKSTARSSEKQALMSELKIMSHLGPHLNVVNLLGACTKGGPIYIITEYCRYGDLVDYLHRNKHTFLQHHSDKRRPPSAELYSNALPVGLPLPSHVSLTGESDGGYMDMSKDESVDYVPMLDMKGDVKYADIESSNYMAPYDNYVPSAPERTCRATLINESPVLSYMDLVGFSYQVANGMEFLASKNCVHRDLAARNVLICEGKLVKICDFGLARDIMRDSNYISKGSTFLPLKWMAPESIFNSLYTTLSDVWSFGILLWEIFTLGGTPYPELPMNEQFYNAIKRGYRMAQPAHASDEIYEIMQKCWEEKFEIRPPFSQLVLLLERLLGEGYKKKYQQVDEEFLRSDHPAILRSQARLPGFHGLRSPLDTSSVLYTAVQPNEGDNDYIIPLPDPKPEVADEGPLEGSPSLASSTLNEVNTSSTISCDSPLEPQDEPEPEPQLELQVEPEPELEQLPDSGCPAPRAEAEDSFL

fold less active than standard 20 in VEGFR-2 inhibition assay (VEGFR-2): ~4 fold
SMILES: CC(C)c1ccc(Nc2nc(NC(=O)C(C)(C)C)nc3[nH]c4cccc(Cl)c4c23)cc1 [Compound 10, N-{5-chloro-4-[(4-isopropylphenyl)amino]-9H-pyrimido[4,5-b]indol-2-yl}-2,2-dimethylpropanamide]

fold less potent than standard 21 in EGFR inhibition assay (EGFR [3]; ratio of IC50 vs PD153035 21): 150 fold
fold less active than erlotinib in EGFR inhibition assay (EGFR [3]; ratio of IC50 vs erlotinib): 25 fold
fold less active than standard 20 in VEGFR-2 inhibition assay (VEGFR-2): about 2.5 fold
SMILES: CC(C)(C)C(=O)Nc1nc(Nc2cccc(F)c2)c2c(n1)[nH]c1cccc(Cl)c12 [Compound 13, N-{5-chloro-4-[(3-fluorophenyl)amino]-9H-pyrimido[4,5-b]indol-2-yl}-2,2-dimethylpropanamide]

fold less active than standard 22 in PDGFR-β inhibition assay (PDGFR-β; ratio of IC50 vs DMBI 22): about 13.5 fold
fold less active than erlotinib in PDGFR-β inhibition assay (PDGFR-β; ratio of IC50 vs erlotinib): 4 fold
fold less active than corresponding 2-amino pivaloyl compound, VEGFR-2 (VEGFR-2; 7 vs 13, 8 vs 14): ~1.7 fold
fold less active than standard 20 in VEGFR-2 inhibition assay (VEGFR-2): 7 fold
SMILES: COc1cccc(Nc2nc(N)nc3[nH]c4cccc(Cl)c4c23)c1 [Compound 8, 5-chloro-N^4-(3-methoxyphenyl)-9H-pyrimido[4,5-b]indole-2,4-diamine]

fold more potent than erlotinib in VEGFR-2 inhibition assay (VEGFR-2; ratio of IC50 vs erlotinib): 9.4 fold
fold more potent than sunitinib in VEGFR-2 inhibition assay (VEGFR-2; ratio of IC50 vs sunitinib): 1.4 fold
potency relative to standard 20 in VEGFR-2 inhibition assay (VEGFR-2; vs semaxanib 20): equipotent
SMILES: Nc1nc(Nc2ccc(Cl)cc2)c2c(n1)[nH]c1cccc(Cl)c12 [Compound 5, 5-chloro-N^4-(4-chlorophenyl)-9H-pyrimido[4,5-b]indole-2,4-diamine]
fold less potent than standard 23 in A431 cytotoxicity assay (A431 cancer cells [1]): 4 fold

IC50 (A431 cancer cells [4]): 10.6 ± 2.9 µM
SMILES: [NH2][Pt]([NH2])([Cl])[Cl] [Cisplatin (23), cisplatin]

More lines, now with the values behind:

SMILES: CC(C)(C)C(=O)Nc1nc(Nc2ccc(Cl)cc2)c2c(n1)[nH]c1cccc(Cl)c12 [Compound 11, N-{5-chloro-4-[(4-chlorophenyl)amino]-9H-pyrimido[4,5-b]indol-2-yl}-2,2-dimethylpropanamide]
fold less active than standard 20 in VEGFR-2 inhibition assay (VEGFR-2): 2 fold
fold less potent than standard 23 in A431 cytotoxicity assay (A431 cancer cells [1]): 5 fold

SMILES: Clc1cccc(Nc2ncnc3[nH]c4ccccc4c23)c1 [Compound 1]
IC50 (EGFR [2]): 0.006 µM

SMILES: COc1cccc(Nc2nc(NC(=O)C(C)(C)C)nc3[nH]c4cccc(Cl)c4c23)c1 [Compound 14, N-{5-chloro-4-[(3-methoxyphenyl)amino]-9H-pyrimido[4,5-b]indol-2-yl}-2,2-dimethylpropanamide]
fold less active than standard 20 in VEGFR-2 inhibition assay (VEGFR-2): ~3.5 fold
